Assay results as given in PMC8778187, “A New Oxygen Containing Pyclen-Type Ligand as a Manganese(II) Binder for MRI and ^52Mn PET Applications: Equilibrium, Kinetic, Relaxometric, Structural and Radiochemical Studies” (Molecules, 2022).

Experiment: Stability and protonation constants and pMn of Mn(II) complexes by pH-potentiometry
Assay type: physicochemical
Experimental: The stability and protonation constants of the metal complexes formed with H2OPC2A were determined by pH-potentiometric titrations, but, for the Cu(II) complex, UV-Vis spectrophotometric measurements were also carried out to supplement the pH-potentiometric titration data (Figures S21 and S22, Supporting Information).
The validity of the equilibrium model used for the fitting of the pH-potentiometric titration data for the Mn(II) system, was supported by ^1H relaxometric measurements, when 1/T1 and 1/T2 relaxation rates were determined as a function of pH, and their trends were compared to the species distribution curves calculated by using the equilibrium constants determined by pH-potentiometry (Table 3). The equilibrium for all metal ions can be described by considering the formation of only ([M(L)]) and monoprotonated ([M(HL)]) complexes (Table 3). However, for the Mn(II), Cu(II), and Zn(II) ions, the formation of ternary hydroxido species ([M(L)(OH)]) was also considered. A comparison of the pH-relaxation rate profiles normalized to 1 mM with the species distribution curves, confirmed that the equilibrium model applied for the fitting of pH-potentiometric titration data, satisfactorily described the Mn(II) system. […] The formation of the [Mn(3,9-OPC2A)] complex was also confirmed by analytical HPLC at pH 7.0 relying on the different retention times of the ligand and the complex (the difference is more than 2 min (Figures S20 and S23)).
The stability constants of the complexes are summarized and compared to those of the chelates formed with H21,7-DO2A, H21,4-DO2A, H23,6-PC2A, H23,9-PC2A, and H21,7-O2DO2A, in Table 3. H23,9-OPC2A forms considerably weaker complexes with all the metal ions involved in the study, than H23,9-PC2A, H23,6-PC2A, H21,7-DO2A, and H21,4-DO2A chelators. […] A similar trend in the stability constants can be observed, when the stability of the structurally related ligands is compared (H23,9-PC2A vs. H21,7-DO2A and, at a somewhat lesser extent, in the case of H23,6-PC2A vs. H21,4-DO2A ligands). […] Therefore, we have calculated the pMn values (pMn = −log(Mn(II)free) for the Mn complexes, by using the conditions proposed by É. Tóth and coworkers (cMn^2+ = cligand = 1 × 10^−5 M, T = 25 °C, pH = 7.4). As it is seen from the data presented in Table 3, the value characteristic for the [Mn(3,9-OPC2A)] complex is as high (pMn = 8.69) as it is for the [Mn(3,9-PC2A)] chelate (despite its lower stability constant), which is, in fact, the highest known value for a monoaquated macrocyclic Mn(II) complex (pMn = 8.64). This means that more than 99,97% of the total Mn(II) in the system is chelated by the H23,9-OPC2A ligand near pH = 7.4 in equilibrium.
Metal stock solutions were prepared from the highest analytical grade chemicals, and their concentrations were determined by complexometric titration with standardized Na2H2EDTA and eriochrome black T indicator in the presence of ascorbic acid, and potassium hydrogen tartrate for MnCl2, murexide indicator for CaCl2 and CuCl2, eriochrome black T for MgCl2 and xylenol orange in the presence of hexamethylenetetramine for the solution of ZnCl2. The concentration of the ligand stock solution was determined by pH-potentiometric titrations. The protonation constants of the ligand were determined by the pH potentiometric titrations with 0.15 M NaOH, using 0.0025 M ligand solutions. The ionic strength was set to 0.15 M by using NaCl. […]

[1] = Mn^2+ complex, T = 25 °C, I = 0.15 M NaCl

O=C(O)CN1CCOCCN(CC(=O)O)Cc2cccc(n2)C1 [H23,9-OPC2A, 6-Oxa-3,9,15-triazabicyclo(9.3.1)pentadeca-1(15),11,13-triene-3,9-diacetic acid]
log KMnHL [1]: 2.40(2)
log KMnL [1]: 13.03(1)
log KMnLOH [1]: 11.49(1)
total Mn(II) chelated by the ligand in equilibrium (near pH = 7.4, pMn conditions): more than 99,97%
pMn (pMn = −log(Mn(II)free), cMn^2+ = cligand = 1 × 10^−5 M, T = 25 °C, pH = 7.4): 8.69
